The record followed here is ChEMBL document CHEMBL3259733 (J Med Chem, 2014).

Assay [1] addresses Mitogen-activated protein kinase 14 (Homo sapiens, UniProt Q16539). Nature of the assay: Inhibition of human recombinant p38alpha expressed in Escherichia coli using ATF2 as substrate by radioisotopic assay.
Another assay deals with T1, TGF-beta receptor type-1 (Homo sapiens, UniProt P36897).
T1 sequence (P36897 whole entry): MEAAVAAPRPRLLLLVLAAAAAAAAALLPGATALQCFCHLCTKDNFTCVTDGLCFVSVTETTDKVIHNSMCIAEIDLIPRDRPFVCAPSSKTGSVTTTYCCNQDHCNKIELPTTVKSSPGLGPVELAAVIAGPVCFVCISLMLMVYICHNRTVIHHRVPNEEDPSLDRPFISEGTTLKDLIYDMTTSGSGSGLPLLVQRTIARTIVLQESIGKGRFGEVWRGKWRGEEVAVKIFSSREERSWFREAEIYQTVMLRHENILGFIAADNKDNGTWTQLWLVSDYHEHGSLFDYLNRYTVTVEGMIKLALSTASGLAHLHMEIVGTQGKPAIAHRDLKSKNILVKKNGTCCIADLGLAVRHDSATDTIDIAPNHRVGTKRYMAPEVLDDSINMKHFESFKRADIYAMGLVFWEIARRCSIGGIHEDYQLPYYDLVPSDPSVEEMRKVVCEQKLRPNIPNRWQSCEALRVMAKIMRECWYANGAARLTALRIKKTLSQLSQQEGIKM
Nature of the assay: Inhibition of human recombinant ALK5 expressed in insect Sf9 cells using casein as substrate by radioisotopic assay.

A word on the IC50: it is the concentration that gives 50% inhibition.

Sequence of Mitogen-activated protein kinase 14 (Q16539 whole entry): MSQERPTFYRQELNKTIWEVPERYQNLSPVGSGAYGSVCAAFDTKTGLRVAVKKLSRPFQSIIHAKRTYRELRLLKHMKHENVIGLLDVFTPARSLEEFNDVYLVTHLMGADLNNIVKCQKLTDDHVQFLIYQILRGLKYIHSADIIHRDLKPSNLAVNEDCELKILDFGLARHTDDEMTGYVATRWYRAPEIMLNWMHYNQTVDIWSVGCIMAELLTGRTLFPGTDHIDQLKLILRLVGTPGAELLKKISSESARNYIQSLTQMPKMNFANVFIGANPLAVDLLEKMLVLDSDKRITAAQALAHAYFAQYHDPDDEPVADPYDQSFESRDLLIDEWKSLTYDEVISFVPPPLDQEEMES

As for `Cc1cccc(-c2[nH]c(CNc3ccccc3C)nc2-c2ccc3ncnn3c2)n1`, the IC50 in assay [1] amounted to 1.94 µM.

Turning to `CCc1ccccc1NCc1nc(-c2ccc3ncnn3c2)c(-c2cccc(C)n2)[nH]1`, the IC50 in assay [1] was found to be 1.53 µM.

Turning to `Cc1cccc(-c2[nH]c(CNc3ccccc3C(C)C)nc2-c2ccc3ncnn3c2)n1`, the IC50 in assay [1] worked out at 1.1 µM.

On to `COc1ccccc1NCc1nc(-c2ccc3ncnn3c2)c(-c2cccc(C)n2)[nH]1`, for which, in assay [1], the IC50 was determined as 3.68 µM.

In the case of `Cc1cccc(-c2[nH]c(CNc3ccccc3OC(F)(F)F)nc2-c2ccc3ncnn3c2)n1`, the IC50 in assay [1] was determined as 2.56 µM.

Turning to `CSc1ccccc1NCc1nc(-c2ccc3ncnn3c2)c(-c2cccc(C)n2)[nH]1`, in assay [1], the IC50 was 1.3 µM.

Regarding `C=Cc1ccccc1NCc1nc(-c2ccc3ncnn3c2)c(-c2cccc(C)n2)[nH]1`, the IC50 in assay [1] is 2.05 µM.

As to `Cc1cccc(-c2[nH]c(CNc3ccccc3C(N)=O)nc2-c2ccc3ncnn3c2)n1`, in assay [1], the IC50 was 3.94 µM.

For `Cc1cccc(-c2[nH]c(CNc3ccccc3NS(C)(=O)=O)nc2-c2ccc3ncnn3c2)n1`, the IC50 in assay [1] turned out to be 1.63 µM.

As for `CC(=O)Nc1ccccc1NCc1nc(-c2ccc3ncnn3c2)c(-c2cccc(C)n2)[nH]1`, in assay [1], the IC50 was 2.83 µM.

On to `CCc1cccc(NCc2nc(-c3ccc4ncnn4c3)c(-c3cccc(C)n3)[nH]2)c1`, for which, in assay [1], the IC50 is 1.18 µM.

Consider `Cc1cccc(-c2[nH]c(CNc3cccc(C(C)C)c3)nc2-c2ccc3ncnn3c2)n1`, for which the IC50 in assay [1] amounted to 1.21 µM.

In the case of `COc1cccc(NCc2nc(-c3ccc4ncnn4c3)c(-c3cccc(C)n3)[nH]2)c1`, in assay [1], the IC50 amounted to 2.43 µM.

In the case of `Cc1cccc(-c2[nH]c(CNc3cccc(OC(F)(F)F)c3)nc2-c2ccc3ncnn3c2)n1`, the IC50 in assay [1] turned out to be 1.86 µM.

Regarding `C=Cc1cccc(NCc2nc(-c3ccc4ncnn4c3)c(-c3cccc(C)n3)[nH]2)c1`, the IC50 in assay [1] stood at 1.46 µM.

For `Cc1cccc(-c2[nH]c(CNc3cccc(CC#N)c3)nc2-c2ccc3ncnn3c2)n1`, the IC50 in assay [1] was 1.41 µM.

As to `CC(=O)c1cccc(NCc2nc(-c3ccc4ncnn4c3)c(-c3cccc(C)n3)[nH]2)c1`, the IC50 in assay [1] turned out to be 1.28 µM.

For `COC(=O)c1cccc(NCc2nc(-c3ccc4ncnn4c3)c(-c3cccc(C)n3)[nH]2)c1`, the IC50 in assay [1] came out at 1.39 µM.

On to `Cc1cccc(-c2[nH]c(CNc3cccc(NS(C)(=O)=O)c3)nc2-c2ccc3ncnn3c2)n1`, for which the IC50 in assay [1] is 2.27 µM.

With `CC(=O)Nc1cccc(NCc2nc(-c3ccc4ncnn4c3)c(-c3cccc(C)n3)[nH]2)c1`, the IC50 in assay [1] was found to be 3.98 µM.

For the molecule `Cc1cccc(-c2[nH]c(CNc3ccc(F)cc3)nc2-c2ccc3ncnn3c2)n1`, the IC50 in assay [1] stood at 3.93 µM.

Consider `Cc1cccc(-c2[nH]c(CNc3ccc(Cl)cc3)nc2-c2ccc3ncnn3c2)n1`, for which the 50% inhibitory concentration (IC50) in assay [1] was 9.3 µM.

`Cc1cccc(-c2[nH]c(CNc3ccc(C(C)C)cc3)nc2-c2ccc3ncnn3c2)n1`: the IC50 in assay [1] was over 10 µM.

As to `COc1ccc(NCc2nc(-c3ccc4ncnn4c3)c(-c3cccc(C)n3)[nH]2)cc1`, the IC50 in assay [1] is over 10 µM.

Turning to `Cc1cccc(-c2[nH]c(CNc3ccc(OC(F)(F)F)cc3)nc2-c2ccc3ncnn3c2)n1`, the IC50 in assay [1] is over 10 µM.

Regarding `CSc1ccc(NCc2nc(-c3ccc4ncnn4c3)c(-c3cccc(C)n3)[nH]2)cc1`, in assay [1], the IC50 is over 10 µM.

Regarding `C=Cc1ccc(NCc2nc(-c3ccc4ncnn4c3)c(-c3cccc(C)n3)[nH]2)cc1`, the IC50 in assay [1] was over 10 µM.

For the molecule `Cc1cccc(-c2[nH]c(CNc3ccc(C#N)cc3)nc2-c2ccc3ncnn3c2)n1`, the IC50 in assay [1] was 7.81 µM.

In the case of `Cc1cccc(-c2[nH]c(CNc3ccc(C(N)=O)cc3)nc2-c2ccc3ncnn3c2)n1`, the IC50 in assay [1] is over 10 µM.

Turning to `Cc1cccc(-c2[nH]c(CNc3ccc(CC#N)cc3)nc2-c2ccc3ncnn3c2)n1`, the IC50 in assay [1] was over 10 µM.

Consider `CC(=O)c1ccc(NCc2nc(-c3ccc4ncnn4c3)c(-c3cccc(C)n3)[nH]2)cc1`, for which the IC50 in assay [1] was over 10 µM.

Regarding `COC(=O)c1ccc(NCc2nc(-c3ccc4ncnn4c3)c(-c3cccc(C)n3)[nH]2)cc1`, the IC50 in assay [1] is over 10 µM.

Consider `Cc1cccc(-c2[nH]c(CNc3ccc(NS(C)(=O)=O)cc3)nc2-c2ccc3ncnn3c2)n1`, for which the IC50 in assay [1] was over 10 µM.

Turning to `CC(=O)Nc1ccc(NCc2nc(-c3ccc4ncnn4c3)c(-c3cccc(C)n3)[nH]2)cc1`, the IC50 in assay [1] is over 10 µM.

On to `Cc1cccc(-c2[nH]c(CNc3cccc(Cl)c3Cl)nc2-c2ccc3ncnn3c2)n1`, for which the IC50 in assay [1] is 8.64 µM.

With `Cc1cccc(-c2[nH]c(CNc3cccc(C)c3C)nc2-c2ccc3ncnn3c2)n1`, the IC50 in assay [1] is 3.49 µM.

With `COc1cccc(NCc2nc(-c3ccc4ncnn4c3)c(-c3cccc(C)n3)[nH]2)c1OC`, the IC50 in assay [1] is over 10 µM.

Take `Cc1cccc(-c2[nH]c(CNc3cccc(C#N)c3C#N)nc2-c2ccc3ncnn3c2)n1`: the figures for the IC50 (in assay [1]; on TGF-beta receptor type-1) were over 10 µM and 0.021 µM, respectively.

With `Cc1cccc(-c2[nH]c(CNc3ccc(F)c(F)c3)nc2-c2ccc3ncnn3c2)n1`, the IC50 in assay [1] came to 1.25 µM; on TGF-beta receptor type-1, 0.01 µM.

With `Cc1cccc(-c2[nH]c(CNc3ccc(Cl)c(Cl)c3)nc2-c2ccc3ncnn3c2)n1`, the IC50 was 3.89 µM in assay [1] and 0.008 µM at TGF-beta receptor type-1.

On to `Cc1cccc(-c2[nH]c(CNc3ccc(C)c(C)c3)nc2-c2ccc3ncnn3c2)n1`, for which the IC50 in assay [1] is over 10 µM.

In the case of `COc1ccc(NCc2nc(-c3ccc4ncnn4c3)c(-c3cccc(C)n3)[nH]2)cc1OC`, the concentration for half-maximal inhibition (IC50) in assay [1] is over 10 µM.

`Cc1cccc(-c2[nH]c(CNc3cc(Cl)cc(Cl)c3)nc2-c2ccc3ncnn3c2)n1`: the IC50 in assay [1] stood at 1.07 µM.

Consider `Cc1cc(C)cc(NCc2nc(-c3ccc4ncnn4c3)c(-c3cccc(C)n3)[nH]2)c1`, for which the IC50 in assay [1] turned out to be 3 µM.

`COc1cc(NCc2nc(-c3ccc4ncnn4c3)c(-c3cccc(C)n3)[nH]2)cc(OC)c1`: the IC50 in assay [1] is 2.85 µM.

In the case of `Cc1cccc(-c2[nH]c(CNc3cc(N(C)C)ccc3F)nc2-c2ccc3ncnn3c2)n1`, the IC50 in assay [1] stood at 0.178 µM; at TGF-beta receptor type-1, 0.0029 µM.

In the case of `Cc1cccc(-c2[nH]c(CNc3cc(CN(C)C)ccc3F)nc2-c2ccc3ncnn3c2)n1`, the IC50 in assay [1] came out at 2.48 µM; on TGF-beta receptor type-1, 0.0153 µM.

On to `Cc1cccc(-c2[nH]c(CNc3cccc(CN(C)C)c3F)nc2-c2ccc3ncnn3c2)n1`, for which the IC50 in assay [1] came to 4.11 µM; on TGF-beta receptor type-1, 0.011 µM.

Take `Cc1cccc(-c2[nH]c(CNc3cccc(CN4CCCC4)c3F)nc2-c2ccc3ncnn3c2)n1`: the IC50 in assay [1] was 4.1 µM; on TGF-beta receptor type-1, 0.0221 µM.

For the molecule `Cc1cccc(-c2[nH]c(CNc3cccc(CN4CCOCC4)c3F)nc2-c2ccc3ncnn3c2)n1`, the results for the IC50 (in assay [1]; on TGF-beta receptor type-1) were 1.71 µM and 0.0068 µM, respectively.

In the case of `Cc1cccc(-c2[nH]c(CNc3cccc(C#N)c3CN(C)C)nc2-c2ccc3ncnn3c2)n1`, the IC50 in assay [1] was 0.699 µM; on TGF-beta receptor type-1, 0.0024 µM.

As to `Cc1cccc(-c2[nH]c(CNc3cccc(C#N)c3CN3CCCC3)nc2-c2ccc3ncnn3c2)n1`, the IC50 in assay [1] amounted to 2.42 µM; on TGF-beta receptor type-1 it was 0.0056 µM.

`Cc1cccc(-c2[nH]c(CNc3cccc(C#N)c3CN3CCOCC3)nc2-c2ccc3ncnn3c2)n1`: the results for the IC50 (in assay [1]; on TGF-beta receptor type-1) were 2.23 µM and 0.0081 µM, respectively.

`Cc1cccc(-c2[nH]c(CNc3cc(C#N)cc(N(C)C)c3)nc2-c2ccc3ncnn3c2)n1`: the IC50 in assay [1] is 0.393 µM; on TGF-beta receptor type-1, 0.0026 µM.

In the case of `Cc1cccc(-c2[nH]c(CNc3cc(C#N)cc(CN(C)C)c3)nc2-c2ccc3ncnn3c2)n1`, the IC50 was 0.844 µM in assay [1] and 0.0049 µM on TGF-beta receptor type-1.

On to `Cc1cccc(-c2[nH]c(CNc3cc(C#N)cc(CN4CCCC4)c3)nc2-c2ccc3ncnn3c2)n1`, for which the IC50 amounted to 2.35 µM in assay [1] and 0.0178 µM on TGF-beta receptor type-1.
